The nature of this assay: Cytotoxicity against human HCT116 cells measured after 72 hrs by MTT assay. Type of assay: functional, cell-based. The conditions noted are these: HCT-116, 72 h. On the technique in general: Tetrazolium assays rely on reduction of a dye to a coloured formazan, in cell work by metabolically active cells.

Two compounds from ChEMBL document CHEMBL3861978, “Dinoflagellate-Related Amphidinolides from the Brazilian Octocoral Stragulum bicolor” (J Nat Prod, 2016) can be followed below.

For `C=C1/C=C(\C)[C@](C)(O)C[C@H](O)CC(=O)[C@H](O)[C@@H](O)[C@H](C)C[C@H](C)OC(=O)/C(C)=C/CC/C=C/C(O)C(O)C[C@H](C)C1` (some centres not stated), the IC50 came to 9.8 µM.
As for `C=C1/C=C(\C)[C@@H](C)[C@@H](O)CC(=O)[C@@H](C)CC(=O)C[C@H]2CC[C@@H](O2)[C@@H](/C=C/C=C(\C)[C@@H](O)C(=C)CCC)OC(=O)C[C@@H]2O[C@H](C[C@H]2C)[C@H](O)C1`, the IC50 is 10.3 µM.

In general, IC50 refers to the point on the concentration scale where inhibition reaches its midpoint.
